Reference: patent publication US20100113415A1, “EPHA4 RTK INHIBITORS FOR TREATMENT OF NEUROLOGICAL AND NEURODEGENERATIVE DISORDERS AND CANCER” (priority 2008, published 2010)

Assays:
[1] = tested on: Jak2/Stat3 activation with Interferon Gamma in MCF-7 cells; assay: Cell-based counterscreen assay (IFN-γ activated Jak2/Stat3, pGAS-Luc in MCF-7 cells); conditions: for IC50: Homo sapiens, MCF7, inflexion point, read-out: Cell Counter Screen Assay IP
Source text: EphA4 cell-based assay was based on the signaling pathway of EphA4, which involves activation of the tyrosine kinase Jak2 and the transcriptional activator Stat3. However, pharmacological agents could also interfere downstream of EphA4 signaling and particularly on Jak2 activity. To counterscreen this potential effect unrelated to EphA4 activity, a new assay was designed based on direct activation of the tyrosine kinase Jak2 and the transcriptional activator Stat3 with Interferon Gamma (IFN-γ).
MCF-7 cells were maintained in MEM growth media, supplemented with 10% fetal bovine serum, 2 mM L-glutamine, 1.5 g/L sodium bicarbonate, 0.1 mM non-essential amino acids, 1 mM sodium pyruvate, and 0.01 mg/ml bovine insulin. For the luciferase assay MCF-7 cells were co-transfected the next day with 50 μg of pGAS-Luc and 5 μg of empty vector pRL-CMV, which encoded the Renilla luciferase, and was included in the transfection mix for normalization. Six hours after transfection the cells were trypsinized and plated at 4.105 cells/ml into 96 well Black/Clear Poly-D-Lysine coated plates (Biocoat) that had been pre-spotted with compounds. IFN-γ (BD Pharmingen, USA) was then added to the wells. Cells were lysed the next day using the Reporter Lysis Buffer (Promega), and the luciferase activity was measured using the Dual Luciferase Assay (Promega) following the manufacturer's directions. The Firefly and Renilla luminescences are read consecutively on a Top-Count (Perkin-Elmer).
Results are expressed as a ratio of the two luminescence: Firefly Luciferase/Renilla Luciferase. Cell viability was assessed on parallel plates using the Cell Glo Assay (Promega) following the manufacturer's directions. Results are expressed as percent of cell death in comparison with vehicle-treated wells.
Compounds were titrated in duplicate at 10 points concentration starting at 100 μM with a 1.5 fold increment. Concentration-response curves were represented and the concentrations at the inflexion point (IP) were calculated. The maximum effect was given by the maximum percent inhibition calculated from the results of the control wells (containing only DMSO).

[2] = tested on: Primary Rat cortical astrocytes; assay: Toxicity (percent of cell death), astrocytes; type: cell-based; conditions: at 20 μM
Method: EphA4 kinase inhibition is assessed by both an enzymatic assay measuring the phosphorylation of a purified recombinant EphA4 kinase and a cell-based assay using the activation of pGas-Luciferase system in EphA4-transfected CHO-K1 cells. The functional effects of EphA4 RTK inhibitors on cell motility and proliferation is evaluated by the scratch wound assay. The effect of EphA4 RTK inhibitors is also directly measured on the cell confluence. The counterscreen assays (cell counterscreen, Src, Jak2 and P38α kinase) identified other potential inhibitory activities of compounds unrelated to EphA4 kinase. The toxicity is measured by the percent of cell death in the different cell assays. Values represent IC50 and IP in μM calculated from the dose-response curves. Values in parentheses give the maximum percent inhibition.

P60c-src = biological target: T1, P60c-src (Homo sapiens, UniProt P12931); assay: Src kinase counterscreen enzymatic assay (TR-FRET); type: biochemical; conditions: 0.5 μM ATP
T1 construct: purchased Upstate biotechnology, USA
T1 sequence (P12931 whole entry): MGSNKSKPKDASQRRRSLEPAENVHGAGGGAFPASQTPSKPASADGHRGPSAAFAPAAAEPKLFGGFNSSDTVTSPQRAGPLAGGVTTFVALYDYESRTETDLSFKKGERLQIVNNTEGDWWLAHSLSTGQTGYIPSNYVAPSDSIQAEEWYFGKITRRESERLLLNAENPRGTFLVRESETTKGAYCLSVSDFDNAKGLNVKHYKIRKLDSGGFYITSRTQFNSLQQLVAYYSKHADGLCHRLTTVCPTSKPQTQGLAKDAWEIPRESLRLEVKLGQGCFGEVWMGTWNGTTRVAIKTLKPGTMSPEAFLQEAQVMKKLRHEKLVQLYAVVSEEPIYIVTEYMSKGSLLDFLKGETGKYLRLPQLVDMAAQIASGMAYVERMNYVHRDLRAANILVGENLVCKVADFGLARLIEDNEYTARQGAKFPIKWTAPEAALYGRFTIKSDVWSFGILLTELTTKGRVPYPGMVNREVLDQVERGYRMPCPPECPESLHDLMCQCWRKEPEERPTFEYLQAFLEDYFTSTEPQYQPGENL
Method: Counterscreen assays were developed for the tyrosine kinases src kinase and Jak2 kinase, with a format essentially identical to the EphA4 kinase TR-FRET format. Jak2 (50 ng) (Cell Signaling, USA) was incubated with 0.5 μM of biotinylated FLT3 peptide (Cell Signaling, USA) in presence of 5 μM of ATP (Sigma). P60c-src (10 U/well) (Upstate biotechnology, USA) was incubated with biotinylated Poly(Glu Tyr) peptide (100 nM) in presence of 0.5 μM of ATP. The enzymatic reaction was stopped after 60 min by adding 15 mM EDTA. The detection reaction and energy transfer signal measurements were similar to those previously described. Results were expressed as ratios of the absorbencies 665/615.
Compounds were titrated in duplicate at 11 points concentration starting at 100 μM with a 3 fold increment. Compounds were diluted in DMSO. […] Percentage inhibition for each compound was then calculated based on the value of the 100% inhibition. Concentration-response curves were represented and the concentrations for 50% inhibition (IC50) were calculated.

CHO-K1 cells = assay: Cell viability (Cell Glo Assay) on parallel plates of the EphA4 cell assay; type: cell-based, Chinese Hamster; conditions: at 100 μM
Method: Transfection and Luciferase Assay: CHO-K1 cells were plated in T-175 cell culture bottle in DMEM medium supplemented with 10% fetal bovine serum, 1 mM sodium pyruvate, 2 mM L-glutamine and 1.5 g/L sodium bicarbonate. When cell reached 70-80% confluence, transfections were performed in T-175 culture flasks, using Lipofectamine 2000™ transfection reagent (Invitrogen) according to the manufacturer's directions. For the luciferase assay CHO-K1 cells were co-transfected the next day with 50 μg of pGAS-Luc, 70 μg of EphA4, and 5 μg of empty vector pRL-CMV, which encoded the Renilla luciferase, and was included in the transfection mix for normalization. […] Cells were lysed the next day using the Reporter Lysis Buffer (Promega), and the luciferase activity was measured using the Dual Luciferase Assay (Promega) following the manufacturer's directions. The Firefly and Renilla luminescences are read consecutively on a Top-Count (Perkin-Elmer). Results are expressed as a ratio of the two luminescence: Firefly Luciferase/Renilla Luciferase. Cell viability was assessed on parallel plates using the Cell Glo Assay (Promega) following the manufacturer's directions. Results are expressed as percent of cell death in comparison with vehicle-treated wells.

In the case of `CC1CCc2c(-c3ccccc3Cl)nc3[nH]nc(N)c3c2C1` (stereo not shown) [Example 63], the “Cell Counter Screen Assay max inhibition in %” value [1] is reported as 82%, the IC50 [1] is reported as 20 µM and the “Max Toxicity Astrocytes % of cell death” value [2] is reported as 5% at 20 μM. The IC50 (P60c-src) was 8.3 µM and the “Max Toxicity Cell Assay % of cell death” value (CHO-K1 cells) was 68% at 100 μM.
`Cc1ccccc1-c1nc2[nH]nc(N)c2c2c1CCC(C)(C)C2` [Example 67] was tested, and the “Cell Counter Screen Assay max inhibition in %” value [1] was 81%, the IC50 [1] was 13 µM and the “Max Toxicity Astrocytes % of cell death” value [2] was 12.5% at 20 μM. For the same compound, the IC50 (P60c-src) was 0.3 µM and the “Max Toxicity Cell Assay % of cell death” value (CHO-K1 cells) was 76% at 100 μM.
